Legend:
LNCaP = test: Anti-proliferative activity against human LNCAP cells measured after 96 hrs by MTT assay; format: functional
PC-3 = test: Anti-proliferative activity against human PC3 cells measured after 96 hrs by MTT assay; format: functional; conditions: PC-3, 96 h
[1] = biological target: Peptidyl-prolyl cis-trans isomerase NIMA-interacting 1 (Homo sapiens, UniProt Q13526); test: Inhibition of Pin1 (unknown origin) using Suc-Ala-Glu-cis-Pro-Phe-4-nitroanilide as substrate preincubated for 30 mins followed by substrate addition measured for 90 secs by protease-enzyme coupled assay
Peptidyl-prolyl cis-trans isomerase NIMA-interacting 1, sequence (Q13526 whole entry): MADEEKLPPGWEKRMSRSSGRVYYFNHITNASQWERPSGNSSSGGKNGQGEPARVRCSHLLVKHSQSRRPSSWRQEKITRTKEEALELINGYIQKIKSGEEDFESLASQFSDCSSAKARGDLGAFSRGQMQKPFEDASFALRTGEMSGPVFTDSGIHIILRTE

Row | SMILES | GI50 (LNCaP) | GI50 (PC-3) | IC50 [1]
1 | COC(=O)[C@@]1(C)C(=O)C(I)=C[C@]2(C)[C@H]3C(=O)C=C4[C@@H]5[C@@H](C)[C@H](C)CC[C@]5(C)CC[C@@]4(C)[C@]3(C)CC[C@@H]12 | > 12.5 µM | > 12.5 µM | 
2 | C[C@H]1[C@H](C)CC[C@]2(C)CC[C@]3(C)C(=CC(=O)[C@@H]4[C@@]5(C)C=C(I)C(=O)[C@](C)(C(=O)N6CCCCC6)[C@@H]5CC[C@]43C)[C@H]12 | > 12.5 µM | > 12.5 µM | 
3 | C[C@H]1[C@H](C)CC[C@]2(C)CC[C@]3(C)C(=CC(=O)[C@@H]4[C@@]5(C)C=C(I)C(=O)[C@](C)(C(=O)O)[C@@H]5CC[C@]43C)[C@H]12 | 3.78 µM | 4.65 µM | 
4 | C[C@H]1[C@H](C)CC[C@]2(C)CC[C@]3(C)C(=CC(=O)[C@@H]4[C@@]5(C)C=C(C(F)(F)F)C(=O)[C@](C)(C(=O)O)[C@@H]5CC[C@]43C)[C@H]12 | 4.26 µM | 4.38 µM | 
5 | C[C@H]1[C@H](C)CC[C@]2(C)CC[C@]3(C)C(=CC(=O)[C@@H]4[C@@]5(C)C=C(I)C(=O)[C@](C)(C(=O)N6CCNCC6)[C@@H]5CC[C@]43C)[C@H]12 | 2.98 µM | 3.36 µM | 4.29 µM
6 | C[C@H]1[C@H](C)CC[C@]2(C)CC[C@]3(C)C(=CC(=O)[C@@H]4[C@@]5(C)C=C(I)C(=O)[C@](C)(C(=O)OCc6ccccc6)[C@@H]5CC[C@]43C)[C@H]12 | > 12.5 µM | > 12.5 µM | 
7 | COC(=O)[C@@]1(C)C(=O)C(C(F)(F)F)=C[C@]2(C)[C@H]3C(=O)C=C4[C@@H]5[C@@H](C)[C@H](C)CC[C@]5(C)CC[C@@]4(C)[C@]3(C)CC[C@@H]12 | 7.82 µM | 3.78 µM | 
8 | C[C@H]1[C@H](C)CC[C@]2(C)CC[C@]3(C)C(=CC(=O)[C@@H]4[C@@]5(C)C=C(C#N)C(=O)[C@](C)(C(=O)N6CCCCC6)[C@@H]5CC[C@]43C)[C@H]12 | 1.14 µM | 2.89 µM | 
9 | COC(=O)[C@@]1(C)C(=O)C=C[C@]2(C)[C@H]3C(=O)C=C4[C@@H]5[C@@H](C)[C@H](C)CC[C@]5(C)CC[C@@]4(C)[C@]3(C)CC[C@@H]12 | > 12.5 µM | > 12.5 µM | 
10 | C[C@H]1[C@H](C)CC[C@]2(C)CC[C@]3(C)C(=CC(=O)[C@@H]4[C@@]5(C)C=CC(=O)[C@](C)(C(=O)OCc6ccccc6)[C@@H]5CC[C@]43C)[C@H]12 | > 12.5 µM | > 12.5 µM | 
11 | C[C@H]1[C@H](C)CC[C@]2(C)CC[C@]3(C)C(=CC(=O)[C@@H]4[C@@]5(C)C=C(C#N)C(=O)[C@](C)(C(=O)O)[C@@H]5CC[C@]43C)[C@H]12 | 0.7 µM | 0.18 µM | 
12 | C[C@H]1[C@H](C)CC[C@]2(C)CC[C@]3(C)C(=CC(=O)[C@@H]4[C@@]5(C)C=C(I)C(=O)[C@](C)(C(=O)N6CCCC6)[C@@H]5CC[C@]43C)[C@H]12 | > 12.5 µM | > 12.5 µM | 
13 | C[C@H]1[C@H](C)CC[C@]2(C)CC[C@]3(C)C(=CC(=O)[C@@H]4[C@@]5(C)C=C(C(F)(F)F)C(=O)[C@](C)(C(=O)N6CCCCC6)[C@@H]5CC[C@]43C)[C@H]12 | 3.21 µM | 3.27 µM | 
14 | CC1CCN(C(=O)[C@@]2(C)C(=O)C(C#N)=C[C@]3(C)[C@H]4C(=O)C=C5[C@@H]6[C@@H](C)[C@H](C)CC[C@]6(C)CC[C@@]5(C)[C@]4(C)CC[C@@H]23)CC1 | 3.82 µM | 2.07 µM | 
15 | COC(=O)[C@@]1(C)C(=O)C(C#N)=C[C@]2(C)[C@H]3C(=O)C=C4[C@@H]5[C@@H](C)[C@H](C)CC[C@]5(C)CC[C@@]4(C)[C@]3(C)CC[C@@H]12 | 2.34 µM | 1.2 µM | 
16 | C[C@H]1[C@H](C)CC[C@]2(C)CC[C@]3(C)C(=CC(=O)[C@@H]4[C@@]5(C)C=C(C#N)C(=O)[C@](C)(C(=O)OCc6ccccc6)[C@@H]5CC[C@]43C)[C@H]12 | 1.66 µM | 0.45 µM | 
17 | CC1CCN(C(=O)[C@@]2(C)C(=O)C(I)=C[C@]3(C)[C@H]4C(=O)C=C5[C@@H]6[C@@H](C)[C@H](C)CC[C@]6(C)CC[C@@]5(C)[C@]4(C)CC[C@@H]23)CC1 | > 12.5 µM | > 12.5 µM | 
18 | C[C@H]1[C@H](C)CC[C@]2(C)CC[C@]3(C)C(=CC(=O)[C@@H]4[C@@]5(C)C=C(C(F)(F)F)C(=O)[C@](C)(C(=O)N6CCCC6)[C@@H]5CC[C@]43C)[C@H]12 | 3.29 µM | 2.64 µM | 
19 | CC(=O)O[C@@H]1CC[C@@]2(C)[C@@H](CC[C@]3(C)[C@@H]2C(=O)C=C2[C@@H]4[C@@H](C)[C@H](C)CC[C@]4(C)CC[C@]23C)[C@@]1(C)C(=O)O [AKBA] | 27.4 µM | 31.9 µM | 53 µM
20 | C[C@H]1[C@H](C)CC[C@]2(C)CC[C@]3(C)C(=CC(=O)[C@@H]4[C@@]5(C)C=C(C(F)(F)F)C(=O)[C@](C)(C(=O)N6CCC(N7CCCCC7)CC6)[C@@H]5CC[C@]43C)[C@H]12 | 1.79 µM | 1.43 µM | 
21 | C[C@H]1[C@H](C)CC[C@]2(C)CC[C@]3(C)C(=CC(=O)[C@@H]4[C@@]5(C)C=C(C#N)C(=O)[C@](C)(C(=O)N6CCC(N7CCCCC7)CC6)[C@@H]5CC[C@]43C)[C@H]12 | 0.67 µM | 0.13 µM | 
22 | C[C@H]1[C@H](C)CC[C@]2(C)CC[C@]3(C)C(=CC(=O)[C@@H]4[C@@]5(C)C=C(I)C(=O)[C@](C)(C(=O)N6CCC(N7CCCCC7)CC6)[C@@H]5CC[C@]43C)[C@H]12 | 3.59 µM | 4.22 µM | 
23 | C[C@H]1[C@H](C)CC[C@]2(C)CC[C@]3(C)C(=CC(=O)[C@@H]4[C@@]5(C)C=C(C(F)(F)F)C(=O)[C@](C)(C(=O)OCc6ccccc6)[C@@H]5CC[C@]43C)[C@H]12 | 3.92 µM | 5.11 µM | 
24 | C[C@H]1[C@H](C)CC[C@]2(C)CC[C@]3(C)C(=CC(=O)[C@@H]4[C@@]5(C)C=C(C(F)(F)F)C(=O)[C@](C)(C(=O)N6CCNCC6)[C@@H]5CC[C@]43C)[C@H]12 | 2.18 µM | 1.07 µM | 9.6 µM
25 | C[C@H]1[C@H](C)CC[C@]2(C)CC[C@]3(C)C(=CC(=O)[C@@H]4[C@@]5(C)C=C(C#N)C(=O)[C@](C)(C(=O)N6CCCC6)[C@@H]5CC[C@]43C)[C@H]12 | 5.37 µM | 3.76 µM | 
26 | CC1CCN(C(=O)[C@@]2(C)C(=O)C(C(F)(F)F)=C[C@]3(C)[C@H]4C(=O)C=C5[C@@H]6[C@@H](C)[C@H](C)CC[C@]6(C)CC[C@@]5(C)[C@]4(C)CC[C@@H]23)CC1 | 4.71 µM | 2.48 µM | 

Reference: ChEMBL document CHEMBL4000186, “Design and synthesis of novel 2-substituted 11-keto-boswellic acid heterocyclic derivatives as anti-prostate cancer agents with Pin1 inhibition ability” (Eur J Med Chem, 2017)
